Data from patent US8802702B2, “Compounds for reducing drug resistance and uses thereof” (The General Hospital Corporation, priority 2009, dated 2014).
Like-named read-outs stand apart in the source and are kept apart here.

Tests used:
[1] = molecular target: T1, Pgp1 efflux in SKOV-3TR and OVCAR8TR cells (Homo sapiens, UniProt P08183); test: Calcein AM drug efflux assay (VYBRANT kit) in resistant cells; format: cell-based
T1 construct: endogenous in cells; host or cells: SKOV-3TR and OVCAR8TR (paclitaxel-selected resistant lines, not transfected)
T1 sequence (P08183 whole entry): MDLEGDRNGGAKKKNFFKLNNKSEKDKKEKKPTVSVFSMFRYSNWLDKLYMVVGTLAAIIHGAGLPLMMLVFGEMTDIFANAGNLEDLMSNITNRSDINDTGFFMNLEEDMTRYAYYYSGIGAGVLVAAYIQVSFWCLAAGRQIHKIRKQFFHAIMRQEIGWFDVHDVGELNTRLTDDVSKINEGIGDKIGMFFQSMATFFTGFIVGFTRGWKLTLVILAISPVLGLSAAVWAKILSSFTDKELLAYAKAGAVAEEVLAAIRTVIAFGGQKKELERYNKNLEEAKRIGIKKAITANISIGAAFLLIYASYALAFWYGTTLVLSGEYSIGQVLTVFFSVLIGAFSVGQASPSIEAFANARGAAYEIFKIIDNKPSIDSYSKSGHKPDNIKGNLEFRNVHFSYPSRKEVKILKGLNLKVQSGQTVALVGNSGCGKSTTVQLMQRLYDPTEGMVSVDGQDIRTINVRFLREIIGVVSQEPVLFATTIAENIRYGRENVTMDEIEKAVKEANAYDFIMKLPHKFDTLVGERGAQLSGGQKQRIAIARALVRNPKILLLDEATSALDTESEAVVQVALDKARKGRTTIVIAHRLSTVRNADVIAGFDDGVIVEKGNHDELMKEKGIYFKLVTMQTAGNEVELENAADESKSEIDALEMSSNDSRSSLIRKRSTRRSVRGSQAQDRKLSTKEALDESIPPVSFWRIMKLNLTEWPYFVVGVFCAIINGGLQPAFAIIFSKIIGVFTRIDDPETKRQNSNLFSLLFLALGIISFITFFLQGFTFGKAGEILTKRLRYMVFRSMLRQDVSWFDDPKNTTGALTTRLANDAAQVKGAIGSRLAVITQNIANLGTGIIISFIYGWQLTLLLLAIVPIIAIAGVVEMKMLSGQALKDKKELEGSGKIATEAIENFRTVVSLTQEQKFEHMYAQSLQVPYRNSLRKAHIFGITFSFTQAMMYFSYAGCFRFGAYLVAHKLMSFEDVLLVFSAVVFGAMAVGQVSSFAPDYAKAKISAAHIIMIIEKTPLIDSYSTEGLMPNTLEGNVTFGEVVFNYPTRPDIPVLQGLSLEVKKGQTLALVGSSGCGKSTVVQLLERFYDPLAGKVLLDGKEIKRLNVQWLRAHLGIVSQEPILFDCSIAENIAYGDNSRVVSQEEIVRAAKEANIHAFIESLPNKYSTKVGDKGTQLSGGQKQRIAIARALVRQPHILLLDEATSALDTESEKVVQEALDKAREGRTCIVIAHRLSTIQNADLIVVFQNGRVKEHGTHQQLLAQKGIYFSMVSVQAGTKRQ
Protocol: Calcein-AM assay was optimized and performed using the VYBRANT™ multi-drug resistance assay kit (Invitrogen/Molecular Probes) and SKOV-3TR cells. Cells were seeded at 50,000 cells/well (100 μl of culture medium) in a 96-well plate and incubated for 24 h. […] The cell fluorescence images were acquired by a fluorescence microscope (A, C) and quantities of fluorescence were measured in a SPECTRAmax Microplate Spectrofluorometer (B, D).
The VYBRANT™ multi-drug resistance assay kit (Invitrogen/Molecular Probes) was used to measure drug efflux properties of different resistant cell lines. This assay utilizes the fluorogenic dye calcein acetoxymethyl ester (calcein AM) as a substrate for efflux activity of Pgp1 or other membrane pump ABC proteins. Calcein AM is taken up by cells and hydrolyzed by cytoplasmic esterases to fluorescent calcein. Calcein AM is well retained in the cytosol. However, multi-drug resistant cells expressing high levels of Pgp1 rapidly extrude non-fluorescent calcein AM from the plasma membrane, reducing accumulation of fluorescent calcein in the cytosol. Drug sensitive and resistant cells (3×10^5) were cultured in 96-well plate for 24 hours and then incubated in 0.25 μM calcein AM in 150 μl total volume. After 30 minutes, the cells in plate were washed and centrifuged twice with 200 μl cold RPMI1640 culture medium, and cell fluorescence was measured at a […] on a SPECTRAMAX™ Microplate Spectrofluorometer (Molecular Devices).

[2] = system: SKOV-3TR and KHOSR2 cells; test: Flow cytometry of intracellular doxorubicin retention; format: cell-based, human; conditions: 5 μM doxorubicin, NSC23925 0.5 μM, 1 hour
Protocol: FIG. 9 depicts the intracellular retention of doxorubicin from multidrug resistant SKOV-3TR and KHOSR2 cells in the presence of 5 μM doxorubicin with or without treatment of NSC23925 (0.5 μM). Cells were treated for 1 hour before the flow cytometry analysis.

[3] = system: Pgp1 mediated transport in SKOV-3TR cells; test: Duration of MDR reversal after incubation and washout; format: cell-based, human; conditions: overnight exposure 1 μM
Protocol: Drug cytotoxicity was determined by MTT assay.
The cells were then incubated for 4 days with addition of varying concentrations of paclitaxel. Final results were determined by MTT assay as described above.

OVCAR8TR cells [4] = test: Reversal of drug resistance, cytotoxicity (MTT) assay in OVCAR8TR; format: cell-based, human; conditions: Paclitaxel
Protocol: FIGS. 1 (a-b) are graphs that depict the effects of NSC23925 on drug sensitivity in ovarian cancer cells; 1(a) depicts the effects of NSC23925 on sensitive (SKOV-3) and resistant (SKOV-3TR) cells; 1(b) depicts the effects of NSC23925 on sensitive (OVCAR8) and resistant (OVCAR8TR) cells. Cells were treated with the paclitaxel and NSC23925 in RPMI1640 complete media at the indicated concentrations. The relative sensitivity of each line to paclitaxel was determined by MTT assay, as described below in the Examples section, 6 days post treatment. A: Reversal of paclitaxel resistance by NSC23925 in SKOV-3TR cells. B: Reversal of paclitaxel resistance by NSC23925 in OVCAR8TR cells.
Drug cytotoxicity was assessed in vitro using the MTT assay. SKOV-3 and SKOV-3TR cells were used herein. Briefly, 2×10^3 cells per well were plated in 96-well plates in culture medium (RPMI 1640 supplemented with 10% fetal bovine serum and penicillin/streptomycin) containing increasing concentrations of drug. After 7 days of culture, 10 μl MTT (5 mg/ml in PBS, obtained from Sigma) were added to each well and the plates were incubated for 4 h. The resulting formazan product was dissolved with acid-isopropanol and the absorbance at a wavelength of 490 nm (A490) was read on a SPECTRAmax® Microplate Spectrophotometer (Molecular Devices, Sunnyvale, Calif.). The absorbance values were normalized by assigning the value of the control line in the medium without drug to 1.0 and the value of the no cell control to 0. Experiments were performed in triplicate.

OVCAR8TR cells [5] = test: as above; format: cell-based, human; conditions: for IC50: Homo sapiens
[6] = system: Pgp1 substrate retention in SKOV-3TR cells; test: Fluorescence microscopy of Pgp substrate accumulation; format: cell-based, human
Protocol: FIG. 8 depicts the increase in Pgp1 substrate accumulation in SKOV-3TR by NSC23925. Images of SKOV-3TR cells incubated with various fluorescent substrates of Pgp1 in the presence (bottom panel) and absence (top panel) of NSC23925. For visualization of effects of NSC23925 on the intracellular retention of rhodamine 123, mitoxantrone, Dioc2, doxorobucin, and calcein AM, 10,000 resistant cells were seeded on to Lab-Tek 8-well chamber slides on the day prior to the assay. SKOV-3TR cells were then incubated with either 1 μM rhodamine 123, 10 μM mitoxantrone, 0.1 μM Dioc2, 10 μM doxorubicin or 0.25 μM calcein AM either alone or in the presence of NSC23925 in RPMI 1640 media for one hour at 37° C. Image were acquired a Nikon Eclipse Ti-U fluorescence microscope (Nikon Corp.) equipped with a SPOT RT digital camera (Diagnostic Instruments, Inc., Sterling Heights, Mich.).
For visualization of the effects of NSC23925 on the intracellular retention of calcein AM, doxorubicin, and mitoxantrone, 10,000 resistant cells were seeded on to Lab-Tek 8-well chamber slides on the day prior to the assay. […] Images were acquired by Nikon Eclipse Ti-U fluorescence microscope (Nikon Corp.) equipped with a SPOT RT digital camera (Diagnostic Instruments, Inc., Sterling Heights, Mich.).

COc1ccc(-c2cc(C(O)C3CCCCN3)c3ccccc3n2)cc1 (centres unmarked) [NSC23925, (2-(4-methoxyphenyl)quinolin-4-yl)(piperidin-2-yl)methanol]
Potency compared with verapamil and CsA (calcein AM accumulation) [1]: significantly greater | Half-maximal reversal of calcein AM accumulation deficit ([1]; SKOV-3TR and OVCAR8TR): 100 nM | Lowest concentration with prominent effect on accumulation of calcein AM ([1]; SKOV-3TR and OVCAR8TR): 1 nM | Near maximal reversal of calcein AM accumulation deficit ([1]; SKOV-3TR and OVCAR8TR): 500 nM | Accumulation of doxorubicin by flow cytometric analysis [2]: increases the accumulation of doxorubicin | Duration of inhibition of Pgp1 mediated transport after wash-out [3]: at least 4 days | IC50 (OVCAR8TR cells [4]; Homo sapiens, add NSC23925 0.1 μM, read-out: OVCAR8TR IC50 of Paclitaxel): 0.127 ± 0.027 µM | fold-reversal of drug resistance, OVCAR8TR (OVCAR8TR cells [4]; add NSC23925 0.5 μM): (4.7) fold | fold-reversal of drug resistance, OVCAR8TR (OVCAR8TR cells [5]; Doxorubicin, add NSC23925 0.1 μM): (2.3) fold | fold-reversal of drug resistance, OVCAR8TR (OVCAR8TR cells [5]; Doxorubicin, add NSC23925 0.5 μM): (5.3) fold | fold-reversal of drug resistance, OVCAR8TR (OVCAR8TR cells [5]; Doxorubicin, add NSC23925 1 μM): (23) fold | fold-reversal of drug resistance, OVCAR8TR (OVCAR8TR cells [5]; ET-743, add NSC23925 0.1 μM): (1.2) fold | fold-reversal of drug resistance, OVCAR8TR (OVCAR8TR cells [5]; ET-743, add NSC23925 0.5 μM): (1.2) fold | fold-reversal of drug resistance, OVCAR8TR (OVCAR8TR cells [5]; ET-743, add NSC23925 1 μM): (0.9) fold | IC50 (OVCAR8TR cells [5]; Doxorubicin, add NSC23925 0.1 μM, read-out: OVCAR8TR IC50 of Doxorubicin): 12.3 ± 0.36 µM | IC50 (OVCAR8TR cells [5]; Doxorubicin, add NSC23925 0.5 μM, read-out: OVCAR8TR IC50 of Doxorubicin): 5.2 ± 0.471 µM | IC50 (OVCAR8TR cells [5]; Doxorubicin, add NSC23925 1 μM, read-out: OVCAR8TR IC50 of Doxorubicin): 1.22 ± 0.122 µM | IC50 (OVCAR8TR cells [5]; ET-743, add NSC23925 0.1 μM, read-out: OVCAR8TR IC50 of ET-743): 0.005 ± 0.001 µM | IC50 (OVCAR8TR cells [5]; ET-743, add NSC23925 0.5 μM, read-out: OVCAR8TR IC50 of ET-743): 0.005 ± 0.001 µM | IC50 (OVCAR8TR cells [5]; ET-743, add NSC23925 1 μM, read-out: OVCAR8TR IC50 of ET-743): 0.007 ± 0.002 µM | IC50 (OVCAR8TR cells [5]; PM00104, add NSC23925 0.1 μM, read-out: OVCAR8TR IC50 of PM00104): 0.008 ± 0.002 µM | IC50 (OVCAR8TR cells [5]; PM00104, add NSC23925 0.5 μM, read-out: OVCAR8TR IC50 of PM00104): 0.006 ± 0.002 µM | IC50 (OVCAR8TR cells [5]; PM00104, add NSC23925 1 μM, read-out: OVCAR8TR IC50 of PM00104): 0.005 ± 0.002 µM | IC50 (OVCAR8TR cells [5]; Paclitaxel, add NSC23925 0.5 μM, read-out: OVCAR8TR IC50 of Paclitaxel): 0.072 ± 0.046 µM | IC50 (OVCAR8TR cells [5]; Paclitaxel, add NSC23925 1 μM, read-out: OVCAR8TR IC50 of Paclitaxel): 0.028 ± 0.047 µM | fold-reversal of drug resistance, OVCAR8TR (OVCAR8TR cells [5]; PM00104, add NSC23925 0.1 μM): (1) fold | fold-reversal of drug resistance, OVCAR8TR (OVCAR8TR cells [5]; PM00104, add NSC23925 0.5 μM): (1.3) fold | fold-reversal of drug resistance, OVCAR8TR (OVCAR8TR cells [5]; PM00104, add NSC23925 1 μM): (1.6) fold | fold-reversal of drug resistance, OVCAR8TR (OVCAR8TR cells [5]; Paclitaxel, add NSC23925 0.1 μM): (2.7) fold | fold-reversal of drug resistance, OVCAR8TR (OVCAR8TR cells [5]; Paclitaxel, add NSC23925 1 μM): (12.1) fold | Fluorescence of SKOV-3TR cells incubated with fluorescent Pgp substrates ([6]; 1 μM NSC23925, one hour at 37° C.): highly fluorescent | Efflux of Pgp1 substrates Rhodamine 123, mitoxantrone, dioc 2 and doxorubicin from SKOV-3TR ([6]; fluorescence): inhibited the efflux
